The source of these data is US7659270B2, “Hepatitis C virus inhibitors” (Bristol-Myers Squibb Company, priority 2006, dated 2010).

pEC50: −log10 of the molar value.

The assay has as its system HCV 1b-377-neo replicon cells. Put plainly: HCV replicon assay (HCV 1b-377-neo replicon cells). The assay is classed as cell-based, Hepatitis C virus genotype 1b. The conditions noted are these: Hepatitis C virus, read-out: EC50 range against HCV 1b (Range). The essentials:
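HCV genotype 1b (1b-377-neo) replicon cells, run as a validated replicon assay; parallel testing in replicon cells carrying the NS5A Y2065H resistance mutation.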
A general note: A replicon is a self-replicating genome or part of one, used to study replication in cells.
One may read the pEC50 as the EC50 on a negative log10 scale, so that one unit is a factor of ten. With `COC(=O)N[C@H](C(=O)N1CCC[C@H]1c1ncc(-c2ccc(-c3ccc(-c4cnc([C@@H]5CCCN5C(=O)[C@@H](Nc5ncccn5)C(C)C)[nH]4)cc3)cc2)[nH]1)C(C)C` [cj-11, methyl((1S)-2-methyl-1-(((2S)-2-(5-(4′-(2-((2S)-1-(N-2-pyrimidinyl-L-valyl)-2-pyrrolidinyl)-1H-imidazol-5-yl)-4-biphenylyl)-1H-imidazol-2-yl)-1-pyrrolidinyl)carbonyl)propyl)carbamate], the pEC50 was 9.00 to 11.00.
`COC(=O)N[C@H](C(=O)N1CCC[C@H]1c1ncc(-c2ccc(-c3ccc(-c4cnc([C@@H]5CCCN5C(=O)[C@@H](Nc5noc(N)n5)C(C)C)[nH]4)cc3)cc2)[nH]1)C(C)C` [cj-16, methyl((1S)-1-(((2S)-2-(5-(4′-(2-((2S)-1-(N-(5-amino-1,2,4-oxadiazol-3-yl)-L-valyl)-2-pyrrolidinyl)-1H-imidazol-5-yl)-4-biphenylyl)-1H-imidazol-2-yl)-1-pyrrolidinyl)carbonyl)-2-methylpropyl)carbamate]: the pEC50 was 9.00 to 11.00.
As to `COC(=O)N[C@H](C(=O)N1CCC[C@H]1c1ncc(-c2ccc(-c3ccc(-c4cnc([C@@H]5CCCN5C(=O)[C@@H](NC(=NC#N)N(C)C)C(C)C)[nH]4)cc3)cc2)[nH]1)C(C)C` [cj-17, methyl((1S)-1-(((2S)-2-(5-(4′-(2-((2S)-1-(N-(cyano(dimethyl)carbamimidoyl)-L-valyl)-2-pyrrolidinyl)-1H-imidazol-5-yl)-4-biphenylyl)-1H-imidazol-2-yl)-1-pyrrolidinyl)carbonyl)-2-methylpropyl)carbamate], the negative-log EC50 (pEC50) is 9.00 to 11.00.
